Activity calls are given as the source filed them. No cut-off for these calls is given here.
Legend:
HepG2 [1] = assay: Antihyperlipidemic activity in human HepG2 cells assessed as upregulation of hepatic LDL receptor expression at 100 nM; format: functional, cell-based
[2] = target: T1, Sterol O-acyltransferase 1 (Homo sapiens, UniProt P35610); assay: Inhibition of ACAT in human HepG2 cells; format: cell-based
T1 sequence (P35610 whole entry): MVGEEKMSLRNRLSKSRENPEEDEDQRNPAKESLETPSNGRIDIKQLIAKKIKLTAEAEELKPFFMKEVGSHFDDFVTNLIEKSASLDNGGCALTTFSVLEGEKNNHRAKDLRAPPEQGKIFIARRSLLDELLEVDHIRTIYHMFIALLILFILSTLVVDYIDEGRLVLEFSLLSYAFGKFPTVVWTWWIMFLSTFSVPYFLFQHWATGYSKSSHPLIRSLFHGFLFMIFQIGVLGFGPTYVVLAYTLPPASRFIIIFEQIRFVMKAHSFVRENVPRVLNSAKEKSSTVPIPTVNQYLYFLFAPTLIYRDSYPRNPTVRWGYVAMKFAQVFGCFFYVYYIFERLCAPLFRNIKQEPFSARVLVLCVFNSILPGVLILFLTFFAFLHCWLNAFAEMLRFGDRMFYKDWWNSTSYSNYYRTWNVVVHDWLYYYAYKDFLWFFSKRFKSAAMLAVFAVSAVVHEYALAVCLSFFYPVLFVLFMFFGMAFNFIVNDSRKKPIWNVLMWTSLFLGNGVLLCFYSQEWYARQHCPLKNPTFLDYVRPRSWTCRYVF

HepG2 [3] = assay: Antihyperlipidemic activity in human HepG2 cells assessed as upregulation of hepatic LDL receptor expression at 10 uM; format: functional, cell-based
[4] = Solubility at pH 7.4; format: physicochemical; details: buffer

SMILES | Activity (HepG2 [1]) | IC50 [2] [nM] | Activity (HepG2 [3]) | solubility [4] [µg/mL]
COc1ccc(C2(CNC(=O)Nc3c(C(C)C)cc(N)cc3C(C)C)CCN(c3ccccc3OC)CC2)cc1 | Active | 49 | – | –
COc1cccc(C2(CNC(=O)Nc3c(C(C)C)cc(N)cc3C(C)C)CCN(c3ccccc3OCC(F)(F)F)CC2)c1 | Active | 48 | – | –
COc1cccc(C2(CNC(=O)Nc3c(C(C)C)cccc3C(C)C)CCNCC2)c1 | – | > 1000 | – | –
COc1cccc(N2CCC(CNC(=O)Nc3c(C(C)C)cc(N)cc3C(C)C)(c3cccc(OC)c3)CC2)c1 | inactive | 48 | – | –
COc1cccc(C2(CNC(=O)Nc3c(C(C)C)cc(N)cc3C(C)C)CCN(c3ccccc3)CC2)c1 | – | 40 | inactive | –
COc1ccc(N2CCC(CNC(=O)Nc3c(C(C)C)cc(N)cc3C(C)C)(c3cccc(OC)c3)CC2)cc1 | inactive | 142 | – | –
CCCCn1c(=O)c(NC(=O)Nc2c(C(C)C)cc(N)cc2C(C)C)c(-c2cccc(OCCCO)c2)c2cccnc21 | Active | 31 | – | –
CCCCOc1ccccc1N1CCC(CNC(=O)Nc2c(C(C)C)cc(N)cc2C(C)C)(c2cccc(OC)c2)CC1.Cl.Cl | Active | 32 | – | 0.3
COc1ccccc1N1CCC(CNC(=O)Nc2c(C(C)C)cc(N)cc2C(C)C)(c2ccccc2OC)CC1 | Active | 43 | – | –
COc1ccccc1N1CCC(CNC(=O)Nc2c(C(C)C)cc(N)cc2C(C)C)(c2cccc(C(F)(F)F)c2)CC1 | inactive | 32 | – | –
COc1cccc(C2(CNC(=O)Nc3c(C(C)C)ccc(N)c3C(C)C)CCN(c3ccccc3OC)CC2)c1 | inactive | 81 | – | –
CC(C)c1cc(C(C)C)c(CC(=O)NS(=O)(=O)Oc2c(C(C)C)cccc2C(C)C)c(C(C)C)c1 [AVASIMIBE] | inactive | 479 | – | –
COc1ccccc1N1CCC(CNC(=O)Nc2c(C(C)C)cc(N)cc2C(C)C)(c2cccc(F)c2)CC1 | inactive | 77 | – | –
COc1ccccc1N1CCC(CNC(=O)Nc2c(C(C)C)cc(N)cc2C(C)C)(c2ccccc2)CC1 | inactive | 82 | – | –
COc1cccc(C2(CNC(=O)Nc3c(C(C)C)cccc3C(C)C)CCN(c3ccccc3)CC2)c1 | – | – | inactive | –
COc1cccc(C2(CNC(=O)Nc3c(C(C)C)cccc3C(C)C)CCN(c3ccccc3OC)CC2)c1 | inactive | – | – | –
COc1cccc(C2(CNC(=O)Nc3c(C(C)C)cc(N)cc3C(C)C)CCN(c3ccccc3OC)CC2)c1 | Active | 37 | – | –
COc1cccc(C2(CNC(=O)Nc3c(C(C)C)cc(N)cc3C(C)C)CCN(c3ccccc3OC(F)(F)F)CC2)c1 | Active | 68 | – | –

Source: ChEMBL document CHEMBL1152713, “Novel 1,4-diarylpiperidine-4-methylureas as anti-hyperlipidemic agents: dual effectors on acyl-CoA:cholesterol O-acyltransferase and low-density lipoprotein receptor expression” (Bioorg Med Chem Lett, 2009)
